Molecules are shown by their SMILES.

The test system of experiment [1] is cell lines of the LAR subtype. Particulars: cited from earlier work.
Another experiment deals with basal-like TNBCs. Particulars: cell lines and clinically; cited from earlier work.
Experiment [2] deals with mesenchymal-like TNBC cell lines. Particulars: cited from earlier work.
Experiment [3] concerns mesenchymal-like cell lines, BT549, Hs578T, and MDA-MB231. Put plainly: Kinase inhibitor screen, CellTiter Glo cell viability, one week. In kind it is cell-based, human. Particulars: did not reach statistical significance (p = 0.12).

Take `CC(O)(CS(=O)(=O)c1ccc(F)cc1)C(=O)Nc1ccc(C#N)c(C(F)(F)F)c1` (stereo not shown) [bicalutamide]: in experiment [1], the “selective toxicity by TNBC subtype” value is listed as “selectively toxic to cell lines of the LAR subtype”.
Take `N.N.[Cl][Pt][Cl]` [cisplatin]: the “toxicity by TNBC subtype” value with basal-like TNBCs was “more toxic to basal-like TNBCs”.
Take `Cc1nc(Nc2ncc(C(=O)Nc3c(C)cccc3Cl)s2)cc(N2CCN(CCO)CC2)n1` [dasatinib]: the “preferential toxicity by TNBC subtype” value in experiment [2] was “preferential toxicity for mesenchymal-like TNBC cell lines”. The “sensitivity compared to cells of other TNBC subtypes” value in experiment [3] is given as “more sensitive to dasatinib than cells of other TNBC subtypes”.

The record behind these values is paper PMC4297247 (Molecular cancer therapeutics, 2014).
